Assays:
[1] = tested on: Hct116 resistant cell line clone #117 (p97 L482I); assay: GI50 fold-change, resistant clone #117 vs parental; format: cell-based, human; settings: Clone #117, Hct116, resistance generated with compound 4, C1444A / L482I; 72 hrs
Method: (§1) Dose titration of test compounds were conducted in Hct116, DLD-1, or LoVo cell lines. In brief, cells were plated in 384-well plates and a selected candidate drug compound was added in a 10-point 2-fold serial dilution.

[2] = tested on: DLD-1 resistant cell line clone #61 (p97 I620I/L); assay: GI50 fold-change, resistant clone #61 vs parental; format: cell-based, human; settings: Clone #61, DLD-1, resistance generated with compound 4, T1859T/C / I620I/L; 72 hrs
Method: as §1

[3] = tested on: Hct116 resistant cell line clone #152 (p97 T688I); assay: GI50 fold-change, resistant clone #152 vs parental; format: cell-based, human; settings: Clone #152, Hct116, resistance generated with compound 4, C2063T / T688I; 72 hrs
Method: (§2) Dose titration of test compounds were conducted in Hct116, DLD-1, or LoVo cell lines. In brief, cells were plated in 384-well plates and a selected candidate drug compound was added in a 10-point 2-fold serial dilution. […] Hct116 cells were plated at 50,000 cells per 15 cm dish and treated with GI50-GI90 doses of test compound for 2-4 weeks until individual colonies of cells were visible on the plate.

[4] = tested on: Hct116 resistant cell line clone #27 (p97 T688A); assay: GI50 fold-change, resistant clone #27 vs parental; format: cell-based, human; settings: Clone #27, Hct116, resistance generated with compound 4, A2062G / T688A; 72 hrs
Method: as §1

[5] = tested on: Hct116 resistant cell line clone #3 (p97 G481A); settings: Clone #3, Hct116, resistance generated with compound 2, G1442C / G481A; 72 hrs
[6] = tested on: p97 inhibitor resistant cell lines; assay: GI50 fold-change in p97 inhibitor resistant cell lines (overall); format: cell-based, human; settings: all resistant cell lines of Table 1, in words
Method: as §1

[7] = tested on: Hct116 resistant cell line clone #180 (p97 A569T); assay: GI50 fold-change, resistant clone #180 vs parental; format: cell-based, human; settings: Clone #180, Hct116, resistance generated with compound 4, G1705A / A569T; 72 hrs
Method: as §1

[8] = tested on: DLD-1 resistant cell line clone #64 (p97 N660N/S); assay: GI50 fold-change, resistant clone #64 vs parental; format: cell-based, human; settings: Clone #64, DLD-1, resistance generated with compound 4, A1979G/A / N660N/S; 72 hrs
Method: as §1

[9] = tested on: Hct116 resistant cell line clone #31 (p97 C535Y); assay: GI50 fold-change, resistant clone #31 vs parental; format: cell-based, human; settings: Clone #31, Hct116, resistance generated with compound 4, G1604A / C535Y; 72 hrs
Method: as §1

[10] = tested on: LoVo resistant cell line clone #221 (p97 V474V/A); assay: GI50 fold-change, resistant clone #221 vs parental; format: cell-based, human; settings: Clone #221, LoVo, resistance generated with compound 4, T1421C/T / V474V/A; 72 hrs
Method: as §2

[11] = tested on: Hct116 resistant cell line clone #47 (p97 E498D); assay: GI50 fold-change, resistant clone #47 vs parental; format: cell-based, human; settings: Clone #47, Hct116, resistance generated with compound 4, G1494T / E498D; 72 hrs
Method: as §1

[12] = tested on: Hct116 resistant cell line clone #5 (p97 D649A); settings: Clone #5, Hct116, resistance generated with compound 2, A1946C / D649A; 72 hrs

| SMILES | Fold Change in GI50 Compared to Parental Cell Line [1] [fold] | Fold Change in GI50 Compared to Parental Cell Line [2] [fold] | Fold Change in GI50 Compared to Parental Cell Line [3] [fold] | Fold Change in GI50 Compared to Parental Cell Line [4] [fold] | Fold Change in GI50 Compared to Parental Cell Line [5] [fold] | fold-change in GI50 for the p97 inhibitor resistant cell lines [6] | Fold Change in GI50 Compared to Parental Cell Line [7] [fold] | Fold Change in GI50 Compared to Parental Cell Line [8] [fold] | Fold Change in GI50 Compared to Parental Cell Line [9] [fold] | Fold Change in GI50 Compared to Parental Cell Line [10] [fold] | Fold Change in GI50 Compared to Parental Cell Line [11] [fold] | Fold Change in GI50 Compared to Parental Cell Line [12] [fold] |
| --- | --- | --- | --- | --- | --- | --- | --- | --- | --- | --- | --- | --- |
| CC(C)C[C@H](NC(=O)[C@H](Cc1ccccc1)NC(=O)c1cnccn1)B(O)O [Compound 1, [(1R)-3-methyl-1-[(2S)-3-phenyl-2-(pyrazin-2-ylformamido)propanamido]butyl]boronic acid, reference compound] | 0.8 | 0.8 | 1.0 | 1.1 | 0.9 | little fold-change in GI50 | 0.8 | 0.7 | 0.9 | 0.9 | 0.8 | 1.0 |
| Cc1cc2c(C(N)=O)cccc2n1-c1nc2c(c(NCc3ccccc3)n1)COCC2 [Compound 4, 1-[4-(benzylamino)-5H,7H,8H-pyrano[4,3-d]pyrimidin-2-yl]-2-methyl-1H-indole-4-carboxamide] | 3.2 | 1.3 | 60.7 | 50.3 | 19.4 |  | 5.9 | 1.2 | 4.6 | 2.2 | 2.4 | 18.7 |
